Each compound was assayed against PI3K delta (Homo sapiens (Human), UniProt O00329) (assay: Biochemical assay for PI3Kdelta (Adapta TR-FRET format)). Conditions: enzymatic assay.
Source text: For the enzymatic assays, the preparation of PI3K gene constructs, protein expression and purification for HTS are described in WO2012/004299. […] The TR-FRET Adapta™ Universal Kinase Assay Kit was purchased from Invitrogen Corporation (Carlsbad/CA, USA) (Cat. No. PV5099). The kit contains the following reagents: Adapta Eu-anti-ADP Antibody (Europium labeled anti-ADP antibody in HEPES buffered saline, Cat. No. PV5097), Alexa Fluor® 647-labeled ADP tracer (Alexa Fluor® 647-labeled ADP tracer in HEPES buffered saline, Cat. No. PV5098), proprietary TR-FRET dilution buffer pH 7.5 (Cat. No. PV3574). PIK3CD substrate Phosphatidylinositol was obtained from Invitrogen (vesicules consisting of 2 mM PI in 50 mM HEPES pH7.5; Cat. No. PV5371). PIK3CG substrate Phosphatidylinositol-4,5-bisphosphate (PIP(4,5)2 was obtained from Invitrogen (PIP2:PS large unilamellar vesicules consisting of 1 mM PI P2: 19 mM PS in 50 mM HEPES pH7.5, 3 mM MgCl2, 1 mM EGTA; Cat. No. PV5100). Time-Resolved Fluorescence Resonance Energy Transfer (TR-FRET) is a technology based on energy transfer between two adjacent dyes, from an excited electron in one dye (the donor) to an electron of an adjacent dye (the acceptor) through resonance, then released as a photon. This energy transfer is detected by an increase in the fluorescence emission of the acceptor, and a decrease in the fluorescence emission of the donor. TR-FRET assays for protein kinases use a long-lifetime lanthanide Terbium or Europium chelates as the donor species which overcome interference from compound autofluorescence or light scatter from precipitated compounds, by introducing a delay after excitation by a flashlamp excitation source. Results are often expressed as a ratio of the intensities of the acceptor and donor fluorophores. The ratiometric nature of such a value corrects for differences in assay volumes between wells, as well as corrects for quenching effects due to colored compounds. The Adapta™ assay can be divided into two phases: a kinase reaction phase and an ADP detection phase. In the kinase reaction phase, all kinase reaction components are added to the well and the reaction is allowed to incubate for a set period of time specific for each kinase. After the reaction, a detection solution of Eu-labeled anti-ADP antibody, Alexa Fluor® 647-labeled ADP tracer, and EDTA (to stop the kinase reaction) are added to the assay well. ADP formed by the kinase reaction will displace the Alexa Fluor® 647-labeled ADP tracer from the antibody, resulting in a decrease in TR-FRET signal. In the presence of an inhibitor, the amount of ADP formed by the kinase reaction is reduced, and the resulting intact antibody-tracer interaction maintains a high TR-FRET signal. In the Adapta™ assay, the donor (Europium-anti-ADP antibody) is excited at 340 nm and will transfer its energy to the acceptor (Alexa Fluor® 647-labeled ADP tracer). The emission from the Alexa Fluor® 647 can be monitored with a filter centered at 665 nm because it is located between the emission peaks of the donor, which is measured at 615/620 nm. 50 nL of compound dilutions were dispensed onto white 384-well small volume polystyrene plate as described in section 2.2. Then 5 μL of PI3Kgamma and PI3Kdelta and lipid substrate (PI or PIP2:PS) followed by 5 μL of ATP (final assay volume 10 μL) are incubated at RT. […] Reactions were stopped with 5 μL of a mixture of EDTA containing the Eu-labeled anti-ADP antibody and the Alexa Fluor® 647-labeled ADP tracer in TR-FRET dilution buffer (proprietary to IVG). Plates are read 15 to 60 mins later in a Synergy2 reader using an integration time of 0.4 seconds and a delay of 0.05 seconds. […] The control for the 0% inhibition was given by the solvent vehicle of the compounds (90% DMSO in H2O). Data are analyzed using Excel fit software or Graphpad Prism. EC50 values were derived by fitting a sigmoidal dose-response curve to a plot of assay readout over inhibitor concentration. […]

PI3K delta, sequence (O00329 2-1044): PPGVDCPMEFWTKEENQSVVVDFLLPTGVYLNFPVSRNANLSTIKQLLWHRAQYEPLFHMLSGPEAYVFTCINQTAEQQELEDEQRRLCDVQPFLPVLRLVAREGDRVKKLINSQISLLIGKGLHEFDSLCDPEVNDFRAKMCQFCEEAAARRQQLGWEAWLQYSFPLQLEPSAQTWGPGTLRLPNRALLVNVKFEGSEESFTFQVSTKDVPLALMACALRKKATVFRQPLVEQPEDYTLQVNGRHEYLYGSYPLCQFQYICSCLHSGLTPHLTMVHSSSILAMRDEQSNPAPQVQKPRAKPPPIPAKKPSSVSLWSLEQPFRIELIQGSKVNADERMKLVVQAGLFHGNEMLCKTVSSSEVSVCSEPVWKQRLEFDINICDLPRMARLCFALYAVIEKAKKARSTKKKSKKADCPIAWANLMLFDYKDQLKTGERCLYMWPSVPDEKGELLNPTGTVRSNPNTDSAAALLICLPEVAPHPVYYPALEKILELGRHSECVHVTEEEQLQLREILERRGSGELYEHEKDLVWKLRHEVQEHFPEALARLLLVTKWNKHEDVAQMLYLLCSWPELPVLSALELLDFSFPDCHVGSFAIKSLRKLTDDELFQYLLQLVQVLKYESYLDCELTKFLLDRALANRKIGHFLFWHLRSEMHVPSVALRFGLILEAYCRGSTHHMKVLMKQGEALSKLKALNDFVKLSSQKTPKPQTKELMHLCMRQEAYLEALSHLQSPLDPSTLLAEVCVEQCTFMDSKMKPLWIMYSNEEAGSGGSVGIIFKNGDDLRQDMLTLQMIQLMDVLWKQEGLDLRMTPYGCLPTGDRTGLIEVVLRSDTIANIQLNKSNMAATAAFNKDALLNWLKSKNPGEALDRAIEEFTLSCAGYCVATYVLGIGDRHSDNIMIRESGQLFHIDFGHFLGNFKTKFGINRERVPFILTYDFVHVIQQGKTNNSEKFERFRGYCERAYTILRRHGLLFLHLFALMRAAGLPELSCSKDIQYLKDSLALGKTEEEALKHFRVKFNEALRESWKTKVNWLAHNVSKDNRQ
PI3K delta, sequence (P27986 461-568 partner): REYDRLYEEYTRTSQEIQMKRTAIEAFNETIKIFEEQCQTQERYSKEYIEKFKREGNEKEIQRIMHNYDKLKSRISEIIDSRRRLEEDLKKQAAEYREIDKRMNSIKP

SMILES | IC50
COc1cncc(-c2cccc3nc([C@@H]4CCCN4c4nc(N)nc(C)c4C#N)n(-c4ccccc4)c(=O)c23)c1 [Example 18, (S)-2-Amino-4-(2-(5-(5-methoxypyridin-3-yl)-4-oxo-3-phenyl-3,4-dihydroquinazolin-2-yl)pyrrolidin-1-yl)-6-methylpyrimidine-5-carbonitrile] | 14 nM
Cc1nc(N)nc(N2CCC[C@H]2c2nc3cccc(-c4cccnc4)c3c(=O)n2-c2ccccc2)c1C#N [Example 20, (S)-2-Amino-4-methyl-6-(2-(4-oxo-3-phenyl-5-(pyridin-3-yl)-3,4-dihydroquinazolin-2-yl)pyrrolidin-1-yl)pyrimidine-5-carbonitrile] | 15 nM
COc1ccc(-c2cccc3nc([C@@H]4CCCN4c4nc(N)nc(C)c4C#N)n(-c4ccccc4)c(=O)c23)cn1 [Example 21, (S)-2-Amino-4-(2-(5-(6-methoxypyridin-3-yl)-4-oxo-3-phenyl-3,4-dihydroquinazolin-2-yl)pyrrolidin-1-yl)-6-methylpyrimidine-5-carbonitrile] | 24 nM
N#Cc1c(N)ncnc1N1CCC[C@H]1c1nc2cccc(C#CCO)c2c(=O)n1-c1ccccc1 [Example 33, (S)-4-Amino-6-(2-(5-(3-hydroxyprop-1-yn-1-yl)-4-oxo-3-phenyl-3,4-dihydroquinazolin-2-yl)pyrrolidin-1-yl)pyrimidine-5-carbonitrile] | 13 nM
Cc1nc(N)nc(N2C[C@@H](O)C[C@H]2c2nc3ccc(F)c(-c4cnn(C)c4)c3c(=O)n2-c2ccccc2)c1C#N [Example 1, 2-Amino-4-((2S,4S)-2-(6-fluoro-5-(1-methyl-1H-pyrazol-4-yl)-4-oxo-3-phenyl-3,4-dihydroquinazolin-2-yl)-4-hydroxypyrrolidin-1-yl)-6-methylpyrimidine-5-carbonitrile] | 8 nM
Cc1nc(N)nc(N2CCC[C@H]2c2nc3ccc(F)c(-c4cnn(C)c4)c3c(=O)n2-c2ccccc2)c1C#N [Example 6, (S)-2-Amino-4-(2-(6-fluoro-5-(1-methyl-1H-pyrazol-4-yl)-4-oxo-3-phenyl-3,4-dihydroquinazolin-2-yl)pyrrolidin-1-yl)-6-methylpyrimidine-5-carbonitrile] | 9 nM
COc1ccc(-c2cccc3nc([C@@H]4C[C@H](O)CN4c4nc(N)nc(C)c4C#N)n(-c4ccccc4)c(=O)c23)cn1 [Example 27, 2-Amino-4-((2S,4S)-4-hydroxy-2-(5-(6-methoxypyridin-3-yl)-4-oxo-3-phenyl-3,4-dihydroquinazolin-2-yl)pyrrolidin-1-yl)-6-methylpyrimidine-5-carbonitrile] | 10 nM
Cn1cnc(-c2cccc3nc([C@@H]4CCCN4c4ncnc(N)c4C#N)n(-c4ccccc4)c(=O)c23)c1 [Example 15, (S)-4-Amino-6-(2-(5-(1-methyl-1H-imidazol-4-yl)-4-oxo-3-phenyl-3,4-dihydroquinazolin-2-yl)pyrrolidin-1-yl)pyrimidine-5-carbonitrile] | > 10000 nM
Cc1nc(N)nc(N2C[C@@H](O)C[C@H]2c2nc3ccc(F)c(-c4cn(C)cn4)c3c(=O)n2-c2ccccc2)c1C#N [Example 31, 2-Amino-4-((2S,4S)-2-(6-fluoro-5-(1-methyl-1H-imidazol-4-yl)-4-oxo-3-phenyl-3,4-dihydroquinazolin-2-yl)-4-hydroxypyrrolidin-1-yl)-6-methylpyrimidine-5-carbonitrile] | 13 nM
Cc1ncc(-c2cccc3nc([C@@H]4CCCN4c4nc(N)nc(C)c4C#N)n(-c4ccccc4)c(=O)c23)cn1 [Example 19, (S)-2-Amino-4-methyl-6-(2-(5-(2-methylpyrimidin-5-yl)-4-oxo-3-phenyl-3,4-dihydroquinazolin-2-yl)pyrrolidin-1-yl)pyrimidine-5-carbonitrile] | 17 nM

Next, values leading:

IC50 | SMILES
8 nM | COc1ncc(-c2cccc3nc([C@@H]4CCCN4c4ncnc(N)c4C#N)n(-c4ccccc4)c(=O)c23)cn1 [Example 3, (S)-4-Amino-6-(2-(5-(2-methoxypyrimidin-5-yl)-4-oxo-3-phenyl-3,4-dihydroquinazolin-2-yl)pyrrolidin-1-yl)pyrimidine-5-carbonitrile]
8 nM | COc1ncc(-c2c(F)ccc3nc([C@@H]4C[C@H](O)CN4c4nc(N)nc(C)c4C#N)n(-c4ccccc4)c(=O)c23)s1 [Example 9, 2-Amino-4-((2S,4S)-2-(6-fluoro-5-(2-methoxythiazol-5-yl)-4-oxo-3-phenyl-3,4-dihydroquinazolin-2-yl)-4-hydroxypyrrolidin-1-yl)-6-methylpyrimidine-5-carbonitrile]
5 nM | COc1ncc(-c2cccc3nc([C@@H]4C[C@H](OC)CN4c4nc(N)nc(C)c4C#N)n(-c4ccccc4)c(=O)c23)cn1 [Example 12, 2-Amino-4-((2S,4S)-4-methoxy-2-(5-(2-methoxypyrimidin-5-yl)-4-oxo-3-phenyl-3,4-dihydroquinazolin-2-yl)pyrrolidin-1-yl)-6-methylpyrimidine-5-carbonitrile]
6 nM | COc1ncc(-c2cccc3nc([C@@H]4CCCN4c4nc(N)nc(C)c4C#N)n(-c4ccccc4)c(=O)c23)cn1 [Example 4, (S)-2-Amino-4-(2-(5-(2-methoxypyrimidin-5-yl)-4-oxo-3-phenyl-3,4-dihydroquinazolin-2-yl)pyrrolidin-1-yl)-6-methylpyrimidine-5-carbonitrile]
7 nM | Cc1nc(N)nc(N2C[C@@H](O)C[C@H]2c2nc3cccc(-c4cnn(C)c4)c3c(=O)n2-c2ccccc2)c1C#N [Example 16, 2-Amino-4-((2S,4S)-4-hydroxy-2-(5-(1-methyl-1H-pyrazol-4-yl)-4-oxo-3-phenyl-3,4-dihydroquinazolin-2-yl)pyrrolidin-1-yl)-6-methylpyrimidine-5-carbonitrile]
4 nM | CCOc1ncc(-c2c(F)ccc3nc([C@@H]4C[C@H](O)CN4c4nc(N)nc(C)c4C#N)n(-c4ccccc4)c(=O)c23)cn1 [Example 29, 2-Amino-4-((2S,4S)-2-(5-(2-ethoxypyrimidin-5-yl)-6-fluoro-4-oxo-3-phenyl-3,4-dihydroquinazolin-2-yl)-4-hydroxypyrrolidin-1-yl)-6-methylpyrimidine-5-carbonitrile]
6 nM | Cc1nc(N)nc(N2C[C@@H](O)C[C@H]2c2nc3cccc(-c4cncnc4)c3c(=O)n2-c2ccccc2)c1C#N [Example 26, 2-Amino-4-((2S,4S)-4-hydroxy-2-(4-oxo-3-phenyl-5-(pyrimidin-5-yl)-3,4-dihydroquinazolin-2-yl)pyrrolidin-1-yl)-6-methylpyrimidine-5-carbonitrile]
6 nM | COc1ncc(-c2c(F)ccc3nc([C@@H]4C[C@H](O)CN4c4nc(N)nc(C)c4C#N)n(-c4ccccc4)c(=O)c23)cn1 [Example 7, 2-Amino-4-((2S,4S)-2-(6-fluoro-5-(2-methoxypyrimidin-5-yl)-4-oxo-3-phenyl-3,4-dihydroquinazolin-2-yl)-4-hydroxypyrrolidin-1-yl)-6-methylpyrimidine-5-carbonitrile]
5 nM | COc1cncc(-c2cccc3nc([C@@H]4C[C@H](O)CN4c4nc(N)nc(C)c4C#N)n(-c4ccccc4)c(=O)c23)c1 [Example 25, 2-Amino-4-((2S,4S)-4-hydroxy-2-(5-(5-methoxypyridin-3-yl)-4-oxo-3-phenyl-3,4-dihydroquinazolin-2-yl)pyrrolidin-1-yl)-6-methylpyrimidine-5-carbonitrile]
4 nM | Cn1cc(-c2c(F)ccc3nc([C@@H]4CCCN4c4ncnc(N)c4C#N)n(-c4ccccc4)c(=O)c23)cn1 [Example 5, (S)-4-Amino-6-(2-(6-fluoro-5-(1-methyl-1H-pyrazol-4-yl)-4-oxo-3-phenyl-3,4-dihydroquinazolin-2-yl)pyrrolidin-1-yl)pyrimidine-5-carbonitrile]
